The values below come from patent US20220348558A1, “INHIBITORS OF ENCEPHALITIC ALPHAVIRUSES” (priority 2019, published 2022).

The subject of one assay is VEEV TC83. The assay can be described thus: microbe, parasite or virus in culture. The conditions noted are these: Venezuelan equine encephalitis virus, Vero 76, 48 h, read-out: VEEV TC83 EC50 nM. In kind it is cell-based.
Another assay relates to WEEV California. The assay can be described thus: microbe, parasite or virus in culture. It counts as cell-based. The conditions noted are these: Western equine encephalitis virus, Vero 76, 48 h, read-out: WEEV California EC50 nM.

As usually defined, the EC50 is the concentration needed to bring the measured effect to its halfway point. Regarding `COCCOc1ccc(-c2cc(C#N)cc3c(=O)n(-c4ccc(OC)c(F)c4)c(C4CCCN4)nc23)cc1` (centres unmarked) [Example 154, 3-(3-Fluoro-4-methoxyphenyl)-8-(4-(2-methoxyethoxy)phenyl)-4-oxo-2-(pyrrolidin-2-yl)-3,4-dihydroquinazoline-6-carbonitrile], the EC50 in the assay on VEEV TC83 and in the assay on WEEV California was 1 to 50 nM in each case.
Turning to `COc1ccc(-n2c([C@H]3CCCN3)nc3c(-c4ccnc(F)c4)cc([N+](=O)[O-])cc3c2=O)cc1F` [Example 90, (R)-3-(3-fluoro-4-methoxyphenyl)-8-(2-fluoropyridin-4-yl)-6-nitro-2-(pyrrolidin-2-yl) quinazolin-4 (3H)-one], the EC50 with VEEV TC83 and with WEEV California was 1 to 50 nM throughout.
Regarding `Cc1cccc(-n2c([C@H]3CCCN3)nc3ccc([N+](=O)[O-])cc3c2=O)c1` [Example 36, (R)-6-nitro-2-(pyrrolidin-2-yl)-3-(m-tolyl)quinazolin-4 (3H)-one], the concentration for a half-maximal effect (EC50) fell in the range of 51 to 150 nM in the assay with VEEV TC83 and 501 to 1000 nM in the assay with WEEV California.
For the molecule `COc1ccc(-n2c([C@H]3CCCN3)nc3c(N4CCOCC4)cc(C#N)cc3c2=O)cc1F` [Example 113, (R)-3-(3-fluoro-4-methoxyphenyl)-8-morpholino-4-oxo-2-(pyrrolidin-2-yl)-3,4-dihydroquinazoline-6-carbonitrile], the EC50 with VEEV TC83 is 1 to 50 nM; in the assay on WEEV California it was 51 to 150 nM.
Taken in the same sequence, the figures for `COc1ccc(-n2c(C3CC4CCC3N4)nc3c(-c4ccc(C)nc4)cc(C#N)cc3c2=O)cc1F` (centres unmarked) [Example 143, 2-(7-azabicyclo[2.2.1]heptan-2-yl)-3-(3-fluoro-4-methoxyphenyl)-8-(6-methylpyridin-3-yl)-4-oxo-3,4-dihydroquinazoline-6-carbonitrile] were 51 to 150 nM and 151 to 500 nM.
Taken in the same sequence, the figures for `COc1ccc(-n2c([C@@H]3CCCN3)nc3c(C(F)(F)F)cc(C#N)cc3c2=O)cc1` [Example 75, (S)-3-(4-methoxyphenyl)-4-oxo-2-(pyrrolidin-2-yl)-8-(trifluoromethyl)-3,4-dihydroquinazoline-6-carbonitrile] were 51 to 150 nM and 51 to 150 nM.
Taken in the same sequence, the figures for `COc1ccc(-n2c(C3CCCN3)nc3c(-c4ccc(CO)cc4)cc(C#N)cc3c2=O)cc1F` (centres unmarked) [Example 134, 3-(3-fluoro-4-methoxyphenyl)-8-(4-(hydroxymethyl)phenyl)-4-oxo-2-(pyrrolidin-2-yl)-3,4-dihydroquinazoline-6-carbonitrile] were 1 to 50 nM and 1 to 50 nM.
As to `COc1ccc(-n2c(C3CCCN3)nc3c(-c4ccc(O)nc4)cc(C#N)cc3c2=O)cc1F` (centres unmarked) [Example 131, 3-(3-fluoro-4-methoxyphenyl)-8-(6-hydroxypyridin-3-yl)-4-oxo-2-(pyrrolidin-2-yl)-3,4-dihydroquinazoline-6-carbonitrile], the concentration for a half-maximal effect (EC50) with VEEV TC83 and in the assay with WEEV California was 1 to 50 nM each time.
On to `COc1ccc(-n2c(C3CCCN3)nc3c(C#Cc4ccc(C)nc4)cc(C#N)cc3c2=O)cc1F` (centres unmarked) [Example 194, 3-(3-Fluoro-4-methoxyphenyl)-8-((6-methylpyridin-3-yl)ethynyl)-4-oxo-2-(pyrrolidin-2-yl)-3,4-dihydroquinazoline-6-carbonitrile], for which the EC50 in the assay on VEEV TC83 and with WEEV California was 51 to 150 nM in each case.
Turning to `COc1ccc(-n2c([C@H]3CCCN3)nc3c(-c4cncc(C#N)c4)cc([N+](=O)[O-])cc3c2=O)cc1F` [Example 94, (R)-3-(3-fluoro-4-methoxyphenyl)-8-(5-cyanopyridin-3-yl)-6-nitro-2-(pyrrolidin-2-yl) quinazolin-4 (3H)-one], the figures for the concentration giving a half-maximal response (EC50) in the assay on VEEV TC83 and with WEEV California were 1 to 50 nM and 51 to 150 nM, respectively.
As to `COc1ccc(-n2c([C@@H]3CCCN3)nc3c(-c4ccncc4)cc([N+](=O)[O-])cc3c2=O)cc1F` [Example 84, (S)-3-(3-fluoro-4-methoxyphenyl)-6-nitro-8-(pyridin-4-yl)-2-(pyrrolidin-2-yl) quinazolin-4 (3H)-one], the half-maximal effective concentration (EC50) in the assay with VEEV TC83 and in the assay on WEEV California was 1 to 50 nM each time.
On to `COc1ccc(-n2c(C3CCCN3)nc3c(-c4ccc(O)cc4)cc(C#N)cc3c2=O)cc1F` (centres unmarked) [Example 158, 3-(3-Fluoro-4-methoxyphenyl)-8-(4-hydroxyphenyl)-4-oxo-2-(pyrrolidin-2-yl)-3,4-dihydroquinazoline-6-carbonitrile], for which the EC50 in the assay on VEEV TC83 and with WEEV California was 501 to 1000 nM throughout.
As for `COc1ccc(-n2c([C@H]3CCCN3C3COC3)nc3ccc([N+](=O)[O-])cc3c2=O)cc1` [Example 11, (R)-3-(4-methoxyphenyl)-6-nitro-2-(1-(oxetan-3-yl)pyrrolidin-2-yl) quinazolin-4 (3H)-one], the results for the EC50 in the assay with VEEV TC83 and in the assay on WEEV California were 51 to 150 nM and 501 to 1000 nM, respectively.
Taken in the same sequence, the figures for `COc1ccc(-n2c([C@H]3CCCN3C)nc3c(-c4cn(C)cn4)cc(C#N)cc3c2=O)cc1F` [Example 98, (R)-3-(3-fluoro-4-methoxyphenyl)-8-(1-methyl-1H-imidazol-4-yl)-2-(1-methylpyrrolidin-2-yl)-4-oxo-3,4-dihydroquinazoline-6-carbonitrile] were 1 to 50 nM and 1 to 50 nM.
Taken in the same sequence, the figures for `CNC(C)c1nc2ccc([N+](=O)[O-])cc2c(=O)n1-c1ccc(OC)cc1` (centres unmarked) [Example 205, 3-(4-methoxyphenyl)-2-(1-(methylamino)ethyl)-6-nitroquinazolin-4 (3H)-one] were 51 to 150 nM and 51 to 150 nM.
The corresponding values for `COc1c(F)cc(-n2c(C34CC(CN3)C4)nc3c(-c4cc(C)nc(C)c4)cc(C#N)cc3c2=O)cc1F` [Example 174, 2-(2-azabicyclo[2.1.1]hexan-1-yl)-3-(3,5-difluoro-4-methoxyphenyl)-8-(2,6-dimethylpyridin-4-yl)-4-oxo-3,4-dihydroquinazoline-6-carbonitrile] are 51 to 150 nM and 51 to 150 nM.
On to `CN1CCC(N2CCC[C@@H]2c2nc3ccc([N+](=O)[O-])cc3c(=O)n2-c2ccccc2)CC1` [Example 4, (R)-2-(1-(1-methylpiperidin-4-yl)pyrrolidin-2-yl)-6-nitro-3-phenylquinazolin-4 (3H)-one], for which the values for the EC50 in the assay on VEEV TC83 and in the assay on WEEV California were 151 to 500 nM and greater than 1000 nM, respectively.
Regarding `COc1ccc(-n2c([C@@H]3CCCN3)nc3c(-c4cccnc4)cc(C#N)cc3c2=O)cc1F` [Example 108, (S)-3-(3-fluoro-4-methoxyphenyl)-4-oxo-8-(pyridin-3-yl)-2-(pyrrolidin-2-yl)-3,4-dihydroquinazoline-6-carbonitrile], the EC50 with VEEV TC83 and with WEEV California was 1 to 50 nM in each case.
Take `COc1ccc(-n2c(C3CCCN3Cc3ccc(F)cc3)nc3c(C)cc([N+](=O)[O-])cc3c2=O)cc1F` (centres unmarked) [Example 204, 3-(3-fluoro-4-methoxyphenyl)-2-(1-(4-fluorobenzyl)pyrrolidin-2-yl)-8-methyl-6-nitroquinazolin-4 (3H)-one]: the 50% effective concentration (EC50) in the assay on VEEV TC83 lay within 51 to 150 nM; in the assay on WEEV California, 151 to 500 nM.
In the case of `C=C(C)c1ccc(-c2cc(C#N)cc3c(=O)n(-c4cc(F)c(OC)c(F)c4)c(C4CCCN4)nc23)cc1` (centres unmarked) [Example 172, 3-(3,5-difluoro-4-methoxyphenyl)-4-oxo-8-(4-(prop-1-en-2-yl)phenyl)-2-(pyrrolidin-2-yl)-3,4-dihydroquinazoline-6-carbonitrile], the half-maximal effective concentration (EC50) in the assay on VEEV TC83 and in the assay on WEEV California was 51 to 150 nM each time.
For the molecule `O=c1c2cc([N+](=O)[O-])ccc2nc(C2CCCN2)n1-c1ccccc1Cl` (centres unmarked) [Example 38, 3-(2-chlorophenyl)-6-nitro-2-(pyrrolidin-2-yl) quinazolin-4 (3H)-one], the EC50 with VEEV TC83 and in the assay with WEEV California was greater than 1000 nM in each case.
Take `COc1ccc(-n2c(-c3cnco3)nc3c(-c4ccc(C)nc4)cc(C#N)cc3c2=O)cc1F` [Example 198, 3-(3-fluoro-4-methoxyphenyl)-8-(6-methylpyridin-3-yl)-2-(oxazol-5-yl)-4-oxo-3,4-dihydroquinazoline-6-carbonitrile]: the 50% effective concentration (EC50) in the assay on VEEV TC83 and in the assay on WEEV California was greater than 1000 nM each time.
Consider `COc1ccc(-n2c([C@H]3CCC(=O)N3)nc3c(-c4ccc(C)nc4)cc(C#N)cc3c2=O)cc1F` [Example 121, (R)-3-(3-fluoro-4-methoxyphenyl)-8-(6-methylpyridin-3-yl)-4-oxo-2-(5-oxopyrrolidin-2-yl)-3,4-dihydroquinazoline-6-carbonitrile], for which the EC50 in the assay on VEEV TC83 and in the assay with WEEV California was greater than 1000 nM in each case.
In the case of `CNCc1nc2ccc([N+](=O)[O-])cc2c(=O)n1-c1ccc(OC)cc1` [Example 210, 3-(4-methoxyphenyl)-2-((methylamino)methyl)-6-nitroquinazolin-4 (3H)-one], the EC50 with VEEV TC83 and in the assay on WEEV California was greater than 1000 nM in each case.
Regarding `COc1ccc(-n2c(C3CCCN3C3CCOCC3)nc3ccc(F)c(F)c3c2=O)cc1` (stereo in doubt) [Example 29, (S)-5,6-difluoro-3-(4-methoxyphenyl)-2-(1-(tetrahydro-2H-pyran-4-yl)pyrrolidin-2-yl) quinazolin-4 (3H)-one], the EC50 in the assay with VEEV TC83 and in the assay on WEEV California was greater than 1000 nM in each case.
In the case of `O=c1c2cc([N+](=O)[O-])ccc2nc(C2CCCN2)n1-c1cccc(Cl)c1` (centres unmarked) [Example 39, 3-(3-chlorophenyl)-6-nitro-2-(pyrrolidin-2-yl) quinazolin-4 (3H)-one], the 50% effective concentration (EC50) in the assay with VEEV TC83 is 51 to 150 nM; in the assay with WEEV California, greater than 1000 nM.
For `COc1ccc(-n2c([C@]3(C)CCCN3)nc3c(-c4ccc(C)nc4)cc(C#N)cc3c2=O)cc1F` [Example 142, (S)-3-(3-fluoro-4-methoxyphenyl)-8-(6-methylpyridin-3-yl)-2-(2-methylpyrrolidin-2-yl)-4-oxo-3,4-dihydroquinazoline-6-carbonitrile], the concentration for a half-maximal effect (EC50) in the assay on VEEV TC83 and in the assay on WEEV California was 1 to 50 nM each time.
Regarding `COc1ccc(-c2cc(C#N)cc3c(=O)n(-c4ccc(OC)c(F)c4)c(C4CCCN4)nc23)cc1F` (centres unmarked) [Example 149, 3,8-Bis(3-fluoro-4-methoxyphenyl)-4-oxo-2-(pyrrolidin-2-yl)-3,4-dihydroquinazoline-6-carbonitrile], the EC50 in the assay with VEEV TC83 and in the assay on WEEV California was 1 to 50 nM throughout.
